Where “and” joins values, the source holds several entries; their conditions need not be identical. Equal values may be shown once. Inconclusive results and toxic doses are left out.
Test system: P388 leukemia ip, CD2F1 mice, survival T/C
Test: NCI In Vivo Anticancer Drug Screen. Data for tumor model P388 Leukemia (intraperitoneal) in CD2F1 (CDF1) mice
Conditions: endpoint: median survival time, higher = longer survival
Method in brief: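 Mice carrying the transplanted tumor received test compound or vehicle. Survival was recorded in each group, and the value is the treated-group measurement divided by that of the vehicle-treated control group.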

Compound: Cc1[nH]c(=O)[nH]c(=O)c1N(CCF)CCCl
- T/C (dose: 0.5 mg/kg/injection, schedule: Q03HX024 (ip), vehicle: acid diluted with saline): 101 % of control
- T/C (dose: 1.0 mg/kg/injection, schedule: Q03HX016 (ip), vehicle: acid diluted with saline): 100 % of control
- T/C (dose: 1.0 mg/kg/injection, schedule: Q03HX024 (ip), vehicle: acid diluted with saline): 105 % of control
- T/C (dose: 1.8 mg/kg/injection, schedule: Q01DX009 (ip), vehicle: saline with Tween-80): 109 % of control
- T/C (dose: 2.0 mg/kg/injection, schedule: Q01DX009 (ip), vehicle: acid diluted with saline): 110 % of control
- T/C (dose: 2.0 mg/kg/injection, schedule: Q01DX009 (sc), vehicle: acid diluted with saline): 101 % of control
- T/C (dose: 2.0 mg/kg/injection, schedule: Q03HX008 (ip), vehicle: acid diluted with saline): 105 % of control
- T/C (dose: 2.0 mg/kg/injection, schedule: Q03HX016 (ip), vehicle: acid diluted with saline): 105 % of control
- T/C (dose: 2.0 mg/kg/injection, schedule: Q03HX024 (ip), vehicle: acid diluted with saline): 108 % of control
- T/C (dose: 2.0 mg/kg/injection, schedule: Q03HX024 (oral), vehicle: acid diluted with saline): 109 % of control
- T/C (dose: 2.0 mg/kg/injection, schedule: Q03HX024 (oral), vehicle: other): 107 % of control
- T/C (dose: 3.0 mg/kg/injection, schedule: Q01DX009 (ip), vehicle: saline with Tween-80): 109 % of control
- T/C (dose: 4.0 mg/kg/injection, schedule: Q01DX005 (ip), vehicle: Klucel (hydroxypropylcellulose) (HPC)): 121 % of control
- T/C (dose: 4.0 mg/kg/injection, schedule: Q01DX005 (iv), vehicle: Klucel (hydroxypropylcellulose) (HPC)): 102 % of control
- T/C (dose: 4.0 mg/kg/injection, schedule: Q01DX009 (ip), vehicle: acid diluted with saline): 101 % of control
- T/C (dose: 4.0 mg/kg/injection, schedule: Q01DX009 (sc), vehicle: acid diluted with saline): 103 % of control
- T/C (dose: 4.0 mg/kg/injection, schedule: Q03HX008 (ip), vehicle: acid diluted with saline): 105 % of control
- T/C (dose: 4.0 mg/kg/injection, schedule: Q03HX008 (oral), vehicle: other): 105 % of control
- T/C (dose: 4.0 mg/kg/injection, schedule: Q03HX016 (oral), vehicle: other): 100 % of control
- T/C (dose: 4.0 mg/kg/injection, schedule: Q03HX024 (ip), vehicle: acid diluted with saline): 112 % of control
- T/C (dose: 4.0 mg/kg/injection, schedule: Q03HX024 (oral), vehicle: acid diluted with saline): 100 % of control
- T/C (dose: 4.0 mg/kg/injection, schedule: Q03HX024 (oral), vehicle: other): 108 % of control
- T/C (dose: 4.0 mg/kg/injection, schedule: Q04DX003 (ip), vehicle: acid diluted with saline): 106 % of control
- T/C (dose: 5.0 mg/kg/injection, schedule: Q01DX009 (ip), vehicle: saline with Tween-80): 109 % of control
- T/C (dose: 6.25 mg/kg/injection, schedule: Q04DX003 (ip), vehicle: saline): 104 % of control
- T/C (dose: 8.0 mg/kg/injection, schedule: Q01DX001 (ip), vehicle: acid diluted with saline): 109 % of control
- T/C (dose: 8.0 mg/kg/injection, schedule: Q01DX001 (ip), vehicle: saline): 118 % of control
- T/C (dose: 8.0 mg/kg/injection, schedule: Q01DX005 (iv), vehicle: Klucel (hydroxypropylcellulose) (HPC)): 119 % of control
- T/C (dose: 8.0 mg/kg/injection, schedule: Q01DX009 (ip), vehicle: acid diluted with saline): 116 % of control
- T/C (dose: 8.0 mg/kg/injection, schedule: Q01DX009 (oral), vehicle: acid diluted with saline): 109 % of control
- T/C (dose: 8.0 mg/kg/injection, schedule: Q01DX009 (oral), vehicle: other): 115 % of control
- T/C (dose: 8.0 mg/kg/injection, schedule: Q01DX009 (sc), vehicle: acid diluted with saline): 108 % of control
- T/C (dose: 8.0 mg/kg/injection, schedule: Q03HX008 (ip), vehicle: acid diluted with saline): 103 % of control
- T/C (dose: 8.0 mg/kg/injection, schedule: Q03HX008 (oral), vehicle: acid diluted with saline): 109 % of control
- T/C (dose: 8.0 mg/kg/injection, schedule: Q03HX008 (oral), vehicle: other): 106 % of control
- T/C (dose: 8.0 mg/kg/injection, schedule: Q03HX016 (ip), vehicle: acid diluted with saline): 105 % of control
- T/C (dose: 8.0 mg/kg/injection, schedule: Q03HX016 (oral), vehicle: acid diluted with saline): 100 % of control
- T/C (dose: 8.0 mg/kg/injection, schedule: Q03HX016 (oral), vehicle: other): 106 % of control
- T/C (dose: 8.0 mg/kg/injection, schedule: Q03HX024 (oral), vehicle: acid diluted with saline): 104 % of control
- T/C (dose: 8.0 mg/kg/injection, schedule: Q03HX024 (oral), vehicle: other): 115 % of control
- T/C (dose: 8.0 mg/kg/injection, schedule: Q04DX003 (ip), vehicle: acid diluted with saline): 112 % of control
- T/C (dose: 8.0 mg/kg/injection, schedule: Q08DX002 (ip), vehicle: acid diluted with saline): 100 % of control
- T/C (dose: 12.5 mg/kg/injection, schedule: Q04DX003 (ip), vehicle: saline): 122 % of control
- T/C (dose: 16.0 mg/kg/injection, schedule: Q01DX001 (ip), vehicle: acid diluted with saline): 103 % of control and 118 % of control and 122 % of control
- T/C (dose: 16.0 mg/kg/injection, schedule: Q01DX001 (ip), vehicle: saline): 122 % of control
- T/C (dose: 16.0 mg/kg/injection, schedule: Q01DX001 (sc), vehicle: acid diluted with saline): 100 % of control
- T/C (dose: 16.0 mg/kg/injection, schedule: Q01DX005 (iv), vehicle: Klucel (hydroxypropylcellulose) (HPC)): 121 % of control
- T/C (dose: 16.0 mg/kg/injection, schedule: Q01DX009 (ip), vehicle: acid diluted with saline): 150 % of control
- T/C (dose: 16.0 mg/kg/injection, schedule: Q01DX009 (oral), vehicle: acid diluted with saline): 113 % of control
- T/C (dose: 16.0 mg/kg/injection, schedule: Q01DX009 (oral), vehicle: other): 115 % of control
- T/C (dose: 16.0 mg/kg/injection, schedule: Q01DX009 (sc), vehicle: acid diluted with saline): 123 % of control
- T/C (dose: 16.0 mg/kg/injection, schedule: Q03HX008 (ip), vehicle: acid diluted with saline): 106 % of control
- T/C (dose: 16.0 mg/kg/injection, schedule: Q03HX008 (oral), vehicle: acid diluted with saline): 109 % of control
- T/C (dose: 16.0 mg/kg/injection, schedule: Q03HX008 (oral), vehicle: other): 106 % of control
- T/C (dose: 16.0 mg/kg/injection, schedule: Q03HX016 (ip), vehicle: acid diluted with saline): 105 % of control
- T/C (dose: 16.0 mg/kg/injection, schedule: Q03HX016 (oral), vehicle: acid diluted with saline): 109 % of control
- T/C (dose: 16.0 mg/kg/injection, schedule: Q03HX024 (oral), vehicle: acid diluted with saline): 109 % of control
- T/C (dose: 16.0 mg/kg/injection, schedule: Q03HX024 (oral), vehicle: other): 100 % of control
- T/C (dose: 16.0 mg/kg/injection, schedule: Q04DX003 (ip), vehicle: acid diluted with saline): 108 % of control
- T/C (dose: 16.0 mg/kg/injection, schedule: Q04DX003 (oral), vehicle: acid diluted with saline): 113 % of control
- T/C (dose: 16.0 mg/kg/injection, schedule: Q04DX003 (oral), vehicle: other): 111 % of control
- T/C (dose: 16.0 mg/kg/injection, schedule: Q08DX002 (ip), vehicle: acid diluted with saline): 101 % of control
- T/C (dose: 23.0 mg/kg/injection, schedule: Q01DX009 (ip), vehicle: saline with Tween-80): 150 % of control
- T/C (dose: 25.0 mg/kg/injection, schedule: Q04DX003 (ip), vehicle: saline): 163 % of control
- T/C (dose: 32.0 mg/kg/injection, schedule: Q01DX001 (ip), vehicle: acid diluted with saline): 103 % of control
- T/C (dose: 32.0 mg/kg/injection, schedule: Q01DX001 (ip), vehicle: saline): 154 % of control
- T/C (dose: 32.0 mg/kg/injection, schedule: Q01DX001 (oral), vehicle: other): 106 % of control
- T/C (dose: 32.0 mg/kg/injection, schedule: Q01DX001 (sc), vehicle: acid diluted with saline): 99 % of control
- T/C (dose: 32.0 mg/kg/injection, schedule: Q01DX009 (ip), vehicle: acid diluted with saline): 158 % of control
- T/C (dose: 32.0 mg/kg/injection, schedule: Q01DX009 (oral), vehicle: acid diluted with saline): 118 % of control
- T/C (dose: 32.0 mg/kg/injection, schedule: Q03HX008 (ip), vehicle: acid diluted with saline): 107 % of control
- T/C (dose: 32.0 mg/kg/injection, schedule: Q03HX016 (oral), vehicle: acid diluted with saline): 109 % of control
- T/C (dose: 32.0 mg/kg/injection, schedule: Q04DX003 (ip), vehicle: acid diluted with saline): 123 % of control
- T/C (dose: 32.0 mg/kg/injection, schedule: Q04DX003 (oral), vehicle: acid diluted with saline): 109 % of control
- T/C (dose: 32.0 mg/kg/injection, schedule: Q04DX003 (oral), vehicle: other): 108 % of control
- T/C (dose: 32.0 mg/kg/injection, schedule: Q08DX002 (ip), vehicle: acid diluted with saline): 101 % of control
- T/C (dose: 32.0 mg/kg/injection, schedule: Q08DX002 (oral), vehicle: other): 114 % of control
- T/C (dose: 64.0 mg/kg/injection, schedule: Q01DX001 (ip), vehicle: saline): 159 % of control
- T/C (dose: 64.0 mg/kg/injection, schedule: Q01DX001 (oral), vehicle: acid diluted with saline): 109 % of control
- T/C (dose: 64.0 mg/kg/injection, schedule: Q01DX001 (oral), vehicle: other): 108 % of control
- T/C (dose: 64.0 mg/kg/injection, schedule: Q01DX001 (sc), vehicle: acid diluted with saline): 100 % of control
- T/C (dose: 64.0 mg/kg/injection, schedule: Q04DX003 (oral), vehicle: acid diluted with saline): 109 % of control
- T/C (dose: 64.0 mg/kg/injection, schedule: Q04DX003 (oral), vehicle: other): 124 % of control
- T/C (dose: 64.0 mg/kg/injection, schedule: Q08DX002 (oral), vehicle: acid diluted with saline): 109 % of control
- T/C (dose: 64.0 mg/kg/injection, schedule: Q08DX002 (oral), vehicle: other): 115 % of control
- T/C (dose: 128.0 mg/kg/injection, schedule: Q01DX001 (oral), vehicle: acid diluted with saline): 109 % of control
- T/C (dose: 128.0 mg/kg/injection, schedule: Q01DX001 (sc), vehicle: acid diluted with saline): 99 % of control
- T/C (dose: 128.0 mg/kg/injection, schedule: Q01DX009 (oral), vehicle: acid diluted with saline): 118 % of control
- T/C (dose: 128.0 mg/kg/injection, schedule: Q08DX002 (oral), vehicle: acid diluted with saline): 100 % of control
- T/C (dose: 256.0 mg/kg/injection, schedule: Q01DX001 (oral), vehicle: acid diluted with saline): 109 % of control
- T/C (dose: 256.0 mg/kg/injection, schedule: Q01DX001 (sc), vehicle: acid diluted with saline): 100 % of control
- T/C (dose: 256.0 mg/kg/injection, schedule: Q04DX003 (oral), vehicle: acid diluted with saline): 118 % of control
- T/C (dose: 256.0 mg/kg/injection, schedule: Q08DX002 (oral), vehicle: acid diluted with saline): 104 % of control
- T/C (dose: 512.0 mg/kg/injection, schedule: Q01DX001 (oral), vehicle: acid diluted with saline): 113 % of control
- T/C (dose: 512.0 mg/kg/injection, schedule: Q08DX002 (oral), vehicle: acid diluted with saline): 109 % of control

From PubChem BioAssay AID330 (DTP/NCI, 2004)
